Drawing on ChEMBL document CHEMBL3785006, “Discovery of 2-Indole-acylsulfonamide Myeloid Cell Leukemia 1 (Mcl-1) Inhibitors Using Fragment-Based Methods” (J Med Chem, 2016), this text covers Ki for 28 molecules.

The experiment deals with Induced myeloid leukemia cell differentiation protein Mcl-1 (Homo sapiens, UniProt Q07820).
Induced myeloid leukemia cell differentiation protein Mcl-1, sequence (Q07820 whole entry): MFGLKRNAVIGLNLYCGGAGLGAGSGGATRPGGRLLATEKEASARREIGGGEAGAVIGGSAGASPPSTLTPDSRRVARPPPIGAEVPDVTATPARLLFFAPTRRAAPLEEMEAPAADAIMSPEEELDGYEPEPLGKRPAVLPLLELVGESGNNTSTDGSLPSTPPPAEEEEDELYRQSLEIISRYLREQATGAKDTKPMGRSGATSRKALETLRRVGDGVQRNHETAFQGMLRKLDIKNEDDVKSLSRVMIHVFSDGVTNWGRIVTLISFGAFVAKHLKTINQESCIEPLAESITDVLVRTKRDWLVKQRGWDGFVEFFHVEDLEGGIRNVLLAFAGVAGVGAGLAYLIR
The Ki is the equilibrium dissociation constant of an inhibitor or competing ligand from its target. Lower therefore signals tighter binding. In turn, `Cc1cc(OCCCc2c(C(=O)NS(=O)(=O)CCNC(=O)[C@@H]3Cc4ccccc4N3)[nH]c3ccccc23)cc(C)c1Cl` yielded a Ki of 193 nM. This counts as sub-micromolar.
The value for `CC(=O)NCCS(=O)(=O)NC(=O)c1[nH]c2cc(Cl)ccc2c1CCCOc1cc(C)c(Cl)c(C)c1` was 209 nM.
Consider `Cc1cc(OCCCc2c(C(=O)NS(=O)(=O)CCNC(=O)c3cccn3-c3ccccc3)[nH]c3ccccc23)cc(C)c1Cl`, for which the affinity, expressed as Ki, was 139 nM.
Regarding `Cc1cc(OCCCc2c(C(=O)NS(=O)(=O)CCNC(=O)c3cccn3C)[nH]c3ccccc23)cc(C)c1Cl`, the Ki came out at 90 nM.
`Cc1cc(OCCCc2c(C(=O)NS(C)(=O)=O)[nH]c3cc(Cl)ccc23)cc(C)c1Cl` had a Ki of 209 nM.
The value for `Cc1cc(OCCCc2c(C(=O)NS(=O)(=O)CCNC(=O)c3ccc4[nH]ccc4c3)[nH]c3ccccc23)cc(C)c1Cl` was 269 nM; that for `Cc1cc(OCCCc2c(C(=O)NS(=O)(=O)CCNC(=O)c3ccccc3C(F)(F)F)[nH]c3cc(Cl)ccc23)cc(C)c1Cl` was 18 nM.
Under `Cc1cc(OCCCc2c(C(=O)NS(=O)(=O)CCNC(=O)C3CCCCC3)[nH]c3ccccc23)cc(C)c1Cl` stands 118 nM; under `Cc1cc(OCCCc2c(C(=O)NS(=O)(=O)CCNS(=O)(=O)C3CCCCC3)[nH]c3ccccc23)cc(C)c1Cl`, 251 nM.
Molecule `Cc1cc(OCCCc2c(C(=O)NS(=O)(=O)CCNC(=O)c3ccc[nH]3)[nH]c3cc(Cl)ccc23)cc(C)c1Cl` displayed a Ki of 782 nM.
As for `CC(=O)NCCS(=O)(=O)NC(=O)c1[nH]c2ccccc2c1CCCOc1cc(C)c(Cl)c(C)c1`, the Ki came to 656 nM.
Consider `Cc1cc(OCCCc2c(C(=O)NS(=O)(=O)c3ccncc3)[nH]c3ccccc23)cc(C)c1Cl`, for which the affinity, expressed as Ki, was 335 nM.
Consider `Cc1cc(OCCCc2c(C(=O)NS(=O)(=O)CCOc3ccccc3)[nH]c3ccccc23)cc(C)c1Cl`, for which the Ki was 322 nM.
Under `Cc1cc(OCCCc2c(C(=O)NS(=O)(=O)CCCNC3CCCCC3)[nH]c3ccccc23)cc(C)c1Cl` stands 1020 nM; under `O=C(NS(=O)(=O)CCNC(=O)C1CCCCC1)c1[nH]c2cc(Cl)ccc2c1CCCOc1cccc2ccccc12`, 374 nM; under `CS(=O)(=O)NC(=O)c1[nH]c2cc(Cl)ccc2c1CCCOc1cccc2ccccc12`, 231 nM.
Under `Cc1cc(OCCCc2c(C(=O)NS(=O)(=O)c3ccccc3)[nH]c3cc(Cl)ccc23)cc(C)c1Cl` stands 91 nM.
Under `Cc1cc(OCCCc2c(C(=O)NS(=O)(=O)CCNC(=O)Cc3cn(C)c4ccccc34)[nH]c3ccccc23)cc(C)c1Cl` stands 298 nM; under `Cc1cc(OCCCc2c(C(=O)NS(=O)(=O)CCNC(=O)c3cc(-c4ccccc4O)n[nH]3)[nH]c3cc(Cl)ccc23)cc(C)c1Cl`, 308 nM; under `CCC(CC)C(=O)NCCS(=O)(=O)NC(=O)c1[nH]c2cc(Cl)ccc2c1CCCOc1cc(C)c(Cl)c(C)c1`, 16 nM.
`Cc1cc(OCCCc2c(C(=O)NS(C)(=O)=O)[nH]c3ccccc23)cc(C)c1Cl` returned a Ki of 655 nM.
The value for `Cc1cc(OCCCc2c(C(=O)NS(=O)(=O)CCNC(=O)c3cccc(F)c3)[nH]c3ccccc23)cc(C)c1Cl` was 100 nM; that for `Cc1cc(OCCCc2c(C(=O)NS(=O)(=O)CCNC(=O)c3cccn3Cc3ccccc3)[nH]c3ccccc23)cc(C)c1Cl` was 148 nM.
The value for `Cc1cc(OCCCc2c(C(=O)NS(=O)(=O)CCNC(=O)c3ccc(C(F)(F)F)cc3)[nH]c3cc(Cl)ccc23)cc(C)c1Cl` was 119 nM; that for `Cc1cc(OCCCc2c(C(=O)NS(=O)(=O)CCNC(=O)C(F)(F)F)[nH]c3cc(Cl)ccc23)cc(C)c1Cl` was 116 nM.
Under `Cc1cc(OCCCc2c(C(=O)NS(=O)(=O)c3ccco3)[nH]c3cc(Cl)ccc23)cc(C)c1Cl` stands 116 nM; under `Cc1cc(OCCCc2c(C(=O)NS(=O)(=O)CCNC(=O)[C@H]3Cc4ccccc4N3)[nH]c3cc(Cl)ccc23)cc(C)c1Cl`, 28 nM.
`Cc1cc(OCCCc2c(C(=O)NS(=O)(=O)CCNC(=O)c3cc4ccccc4o3)[nH]c3ccccc23)cc(C)c1Cl`: the Ki stood at 311 nM.
